Assays:
PLC-δ PH domain [1] = molecular target: T1, PLC-δ PH domain (Homo sapiens, UniProt P51178); assay: FP assay, PIP2 binding to PLC-δ PH domain; conditions: 15 nM TMR-PIP2, 100 nM PLC-δ PH domain, 0-200 μM
T1 construct: 100 nM PLC-δ PH domain
T1 sequence (P51178 21-130 limits assumed): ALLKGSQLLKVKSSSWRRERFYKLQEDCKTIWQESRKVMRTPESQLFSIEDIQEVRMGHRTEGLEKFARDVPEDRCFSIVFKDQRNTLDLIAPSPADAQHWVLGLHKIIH
Method: FIG. 5 is a graph depicting specificity and concentration-dependent competitive inhibition of PIP3-PH domain interaction by PIT-1 and PIT-2. 15 nM TMR-conjugated PIP2 were incubated with 100 nM PLC-δ PH domain in the presence or absence of the indicated concentrations of PITs (0-200 μM) for 30 min, followed by FP measurement.
In order to identify compounds that disrupt the interaction between PIP3 and PH domains, a high-throughput fluorescence polarization (FP)-binding assay was developed using recombinant 1-123 amino acid N-terminal fragment of human Akt1 (also referred to herein simply as Akt), encompassing the PH domain (PH123 protein), and fluorescent NBD-labeled PIP3 molecule. The amino acid sequence of human Akt1 is publicly available as, for example, GenBank Accession No. NP_001014432.1 (SEQ ID NO:1), and the corresponding DNA sequence is publicly available as, for example, GenBank Accession No. NM_001014432. Briefly, 5 μM recombinant GST fusion proteins containing 1-123 a.a. N-terminal fragment of human Akt1 (PH 123) or 100 nM 441-551 a.a. region of human PDK1 were incubated with 15 nM TMR-labeled PIP3, PIP2, or PIP5 in buffer containing 50 mM Tris-HCl (pH 7.5), 150 mM NaCl, and 5 mM b-ME for 15 min at room temperature in the dark. FP values were determined using Wallac Victor 3 plate reader. […]

[2] = molecular target: T2, PH domain of Akt (His6-Akt123) (Homo sapiens, UniProt P31749); assay: NMR 2D HSQC 1H-15N binding analysis, His6-Akt123
T2 construct: Human Akt PH domain a.a; 1-123; made in house; host or cells: E. coli BL21(DE3)
T2 sequence (P31749 1-123): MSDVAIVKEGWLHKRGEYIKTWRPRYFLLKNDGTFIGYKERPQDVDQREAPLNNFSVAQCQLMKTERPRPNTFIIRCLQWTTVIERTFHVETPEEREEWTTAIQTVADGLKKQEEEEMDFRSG
Method: Human Akt PH domain a.a. 1-123 and human PDK1 PH domain a.a. 411-557 were cloned by PCR amplification into Bam HI/Eco RI sites of pGEX-6P-1 vector (GE Healthcare). For NMR experiments, His6-Akt PH123 was prepared by cloning corresponding PCR fragment between Nde I and Eco RI sites of pET-28 vector (Novagen). Recombinant proteins were expressed in BL21(DE3) E. coli. Expression was induced by addition of 100 μM IPTG for 16 hr at 25° C. Proteins were purified using glutathione-sepharose (GE Healthcare) or Ni-NTA beads (Qiagen) according to manufacturer's recommendations and dialyzed overnight against 50 mM Tris-HCl (pH 7.5), 150 mM NaCl, and 5 mM β-mercaptoethanol (b-ME) buffer.
To further characterize the mode of action of PIT-1, NMR-based analyses of PIT-1 binding to the PH domain of Akt were performed. […] PIT-1 was further titrated to identify residues primarily affected by the small molecule binding.

eIF-1 = eIF-1 (Homo sapiens, UniProt P41567); assay: NMR HSQC specificity control, eIF-1; format: binding
Chain of eIF-1 (P41567 whole entry, species assumed, the tested form may be a part): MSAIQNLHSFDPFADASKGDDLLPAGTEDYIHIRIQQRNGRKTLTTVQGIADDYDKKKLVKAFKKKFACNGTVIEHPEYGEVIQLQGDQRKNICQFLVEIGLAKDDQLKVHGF

PLC-δ PH domain [3] = molecular target: T1, PLC-δ PH domain; assay: PH domain translocation assay, GFP-fused PLC-δ PH domain; format: cell-based
Method: Cells were transfected with the corresponding GFP-fusion vectors, serum starved overnight, and incubated with 100 μM PITs or PIT-1is for 2 hr, followed by stimulation with 100 ng/ml PDGF or 250 ng/ml PMA for 5 min. The translocation was analyzed using fluorescent microscope and was quantitated by counting the number of cells with translocated PH domains in five random fields.
In contrast, no inhibitory effect was observed on the cellular localization of PLC-δ PH domain, which is specific for PIP2.

PI3K-PDK1-Akt signaling = PI3K-PDK1-Akt signaling in growth factor-stimulated SUM159 cells; format: cell-based, human
cells = assay: subG1 DNA content; format: cell-based; conditions: P<0.01
Text: (§1) Since PI3K/PIP3/Akt signaling plays a critical role in the inhibition of apoptosis (Datta S R et al. (1999) Genes Dev 13:2905-27), the possibility that PITs induce apoptosis was examined. […] Proapoptotic Bcl-2 family members Bax and Bak are important mediators of apoptosis. Wei M C et al. (2001) Science 292:727-30. […] Non-apoptotic mechanisms of cell death may also play some additional, albeit less important, role in PIT-induced killing, as some cell death was still observed in Bax/Bak-deficient cells and in the presence of zVAD.fmk.

caspase-3 = assay: Western blot of caspase-3 cleavage and PARP processing; format: cell-based
Text: as §1

[4] = system: differentiated HL-60 cells; assay: fMLP-stimulated HL-60 cell polarization; format: cell-based; conditions: 100 μM, 2 hr
Method: In another set of experiments, the ability of PITs to inhibit fMLP-stimulated HL-60 cell polarization was examined. Differentiated HL-60 cells were treated with PIT-1, PIT-2, PIT-1i-1, or PIT-1i-2, each at 100 μM for 2 hr, followed by stimulation with 100 nM fMLP for 3 min. Actin was stained and analyzed using fluorescent microscopy. The number of the polarized cells was counted in five random fields.

[5] = system: PI3K/PDK1/Akt signaling pathway; assay: PI3K/PDK1/Akt signaling in HUVEC, Western blotting; format: cell-based, human; conditions: 50, 100, 200 μM, 2 hr, bFGF
Method: Endothelial cell migration plays a central role in tumor angiogenesis. Avraamides C J et al. (2008) Nat Rev Cancer 8:604-17. […] First, human umbilical vein endothelial cells (HUVEC) cells were serum starved overnight, and treated with different concentrations of PIT-1 (50, 100 and 200 μM) for 2 hr, followed by stimulation with 10 ng/ml bFGF for 15 min, and the PIP3-dependent phosphorylation events were evaluated by Western blotting.

| Compound | inhibition of interaction between PIP2 and PH domain of PLC-δ (PLC-δ PH domain [1]) | changes in 2D HSQC spectrum of His6-Akt123 [2] | changes in HSQC spectrum of eIF-1 (eIF-1) | effect on PLC-δ PH domain localization / PIP2/PH domain binding in cells (PLC-δ PH domain [3]) | PI3K-PDK1-Akt signaling in SUM159 cells (PI3K-PDK1-Akt signaling) | subG1 DNA content in cells (cells) | cleavage/activation of caspase-3 and processing of PARP (caspase-3) | fMLP-stimulated polarization of differentiated HL-60 neutrophils [4] | PI3K/PDK1/Akt signaling pathway in HUVEC [5] |
| --- | --- | --- | --- | --- | --- | --- | --- | --- | --- |
| O=C(NC(=S)Nc1cc([N+](=O)[O-])cc(Cl)c1O)c1ccccc1 [PIT-1] | failed to inhibit | induces significant changes | did not elicit any changes | does not disrupt | significantly suppressed | significant increase | induced the cleavage/activation | efficient inhibition | capable of blocking |
| O=C1NC(=S)S/C1=C\c1cc(O)c([N+](=O)[O-])cc1Cc1ccccc1 [PIT-2] | failed to inhibit | – | – | – | – | significant increase | – | – | – |
